The values below come from BindingDB's records for doi:10.1111/cbdd.12095 (Universite Lille-Nord de France, 2013).

The term Ki denotes a dissociation constant, usually derived from enzyme kinetics or from competition with a known ligand. The low end stands for tighter binding, the high end for weaker binding.

The target in the experiment is Cannabinoid receptor 2 (Homo sapiens, UniProt P34972). The experiment is described as follows: Competition Binding Assay. An excerpt: Competitive binding assay using cannabinoid receptors.
Chain of Cannabinoid receptor 2 (P34972 whole entry): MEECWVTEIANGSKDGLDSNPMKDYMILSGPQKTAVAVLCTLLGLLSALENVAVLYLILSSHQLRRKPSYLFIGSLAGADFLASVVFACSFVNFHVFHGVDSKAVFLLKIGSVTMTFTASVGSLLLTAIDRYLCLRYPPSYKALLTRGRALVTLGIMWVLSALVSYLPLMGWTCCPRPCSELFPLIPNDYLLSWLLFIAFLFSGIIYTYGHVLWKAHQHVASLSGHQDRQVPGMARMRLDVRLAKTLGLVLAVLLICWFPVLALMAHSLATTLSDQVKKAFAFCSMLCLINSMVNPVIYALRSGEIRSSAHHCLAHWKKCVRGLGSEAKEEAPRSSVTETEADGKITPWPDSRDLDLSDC
`C#CN1CCC2=C(C1)c1c(O)cc(C(C)C(C)CCCCC)cc1OC2(C)C` (stereo not drawn) [CB2 Inhibitor, 1] gave a Ki of 0.0023 µM. As for `Cc1cc(C)c(CNC(=O)c2cc3c(C)nn(Cc4ccc(F)cc4)c3s2)c(=O)[nH]1` [CB2 Inhibitor, 2], the figure is 0.143 µM; as for `CC1N(C)c2ccc(P(=O)(c3ccccc3)c3ccccc3)cc2C1(C)C` (stereo not drawn) [CB2 Inhibitor, 3], 0.54 µM; as for `Cc1cc(C(=O)COc2ccccc2C(N)=O)c(C)n1CCC1=CCCCC1` [CB2 Inhibitor, 4], 0.96 µM.

Molecule `COc1ccc(CN2CCCn3c4c(c5cc(C)ccc53)CCCC42)cc1O` (stereo not drawn) [CB2 Inhibitor, 5] returned an inhibition constant Ki of 2.36 µM.

Take `CC1CCCN(Cc2cc(-c3ccc4c(c3)OCO4)ccc2OCC(=O)NCc2ccccc2F)C1` (stereo not drawn) [CB2 Inhibitor, 6]: the inhibition constant Ki was 4.44 µM. `c1ccc2c(c1)CCCC2Nc1nc(CN2CCCCC2)nc2sc3c(c12)CCCC3` (stereo not drawn) [CB2 Inhibitor, 7] had a Ki of 4.78 µM. `O=C(CCC(=O)N1CCC(n2c(=O)[nH]c3ccccc32)CC1)c1ccc2c(c1)CCCC2` [CB2 Inhibitor, 8] returned an inhibitory constant (Ki) of 8.83 µM. For `CCC(CC)S(=O)(=O)c1cccc(-c2nnc(SCCN(C)C)n2C2CCCCCC2)c1` [CB2 Inhibitor, 9], the Ki stood at 9.27 µM. `CCCC(=NNC(=O)C1CC1(c1cccc(C)c1)c1cccc(C)c1)c1ccc(OC)cc1` (stereo not drawn) [CB2 Inhibitor, 10] showed a Ki of 14.7 µM. `CC1=CC(C(=O)CN2C(=O)NC(C)(c3ccc(F)cc3)C2=O)=C(C)C1CCc1cccs1` (stereo not drawn) [CB2 Inhibitor, 11]: affinity was put at a Ki of 36.9 µM.

Molecule `CCCn1c(SCC(=O)NCC2COc3ccccc3O2)nc2sc3c(c2c1=O)CCC3` (stereo not drawn) [CB2 Inhibitor, 12] came in with an inhibition constant (Ki) of 60.9 µM. As for `CN(C)C(CNC(=O)C1(Cc2ccccc2)CCCCC1)c1cccs1` (stereo not drawn) [CB2 Inhibitor, 13], the figure is 71.4 µM.
